≈ marks a conversion by molar mass, not a printed value.
Legend:
[1] = Metabolism stability test; assay type: in vitro ADME; settings: human liver microsomes, 30 minutes, 37° C., NADPH, 0.5 μmol/L of test compound
Protocol: Using commercially available pooled human hepatic microsomes, the compound of the present invention was reacted for a constant time, a remaining rate was calculated by comparing a reacted sample and an unreacted sample, thereby, a degree of metabolism of the compound of the present invention in liver was assessed.
A reaction was performed (oxidative reaction) at 37° C. for 0 minute or 30 minutes in the presence of 1 mmol/L NADPH in 0.2 mL of a buffer (50 mmol/L Tris-HCl pH 7.4, 150 mmol/L potassium chloride, 10 mmol/L magnesium chloride) containing 0.5 mg protein/mL of human liver microsomes. After the reaction, 50 μL of the reaction solution was added to 100 μL of a methanol/acetonitrile=1/1 (v/v) solution, mixed and centrifuged at 3000 rpm for 15 minutes. The compound of the present invention in the supernatant was quantified by LC/MS/MS, and a remaining amount of the compound of the present invention after the reaction was calculated, letting a compound amount at 0 minute reaction time to be 100%. (Result) Remaining rate was shown at 0.5 μmol/L of test compound.

recombinant human MGAT2 = recombinant human MGAT2 (Homo sapiens (Human), UniProt Q3SYC2); test: Measurement of human MGAT2 inhibitory activity; assay type: biochemical; settings: read-out: IC50 (concentration exhibiting 50% enzyme inhibition), Table 53
Outline: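 RapidFire ESI-MS read-out of the diolein/diolein-d5 peak ratio gave % inhibition, with no-enzyme and full-enzyme wells as 100% and 0%. Reactions ran 1 h at room temperature at pH 7.4 (phosphate, 2 mmol/L DTT), using Flag-tagged human MGAT2 membranes from Sf9 cells and a substrate solution of 30 μmol/L 2-oleoylglycerol and 10 μmol/L oleoyl-CoA.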

[2] = Solubility test (1% DMSO addition, pH 6.8 artificial intestinal juice); assay type: physicochemical; settings: pH 6.8 artificial intestinal juice with 1% DMSO, kinetic from dmso stock, 16 hours at 25° C.
Protocol: The solubility of the compound of the present invention was determined under 1% DMSO addition conditions. 10 mmol/L solution of the compound was prepared with DMSO, and 6 μL of the solution of the compound of the present invention was added to 594 μL of pH 6.8 artificial intestinal juice (118 mL of 0.2 mol/L NaOH test solution and water were added to 250 mL of 0.2 mol/L potassium dihydrogen phosphate test solution to reach 1000 mL). The mixture was left standing for 16 hours at 25° C., and the mixture was vacuum-filtered. The filtrate was two-fold diluted with methanol/water=1/1 (V/V), and the compound concentration in the filtrate was measured with HPLC or LC/MS/MS by the absolute calibration method.

Chain of recombinant human MGAT2 (Q3SYC2 whole entry): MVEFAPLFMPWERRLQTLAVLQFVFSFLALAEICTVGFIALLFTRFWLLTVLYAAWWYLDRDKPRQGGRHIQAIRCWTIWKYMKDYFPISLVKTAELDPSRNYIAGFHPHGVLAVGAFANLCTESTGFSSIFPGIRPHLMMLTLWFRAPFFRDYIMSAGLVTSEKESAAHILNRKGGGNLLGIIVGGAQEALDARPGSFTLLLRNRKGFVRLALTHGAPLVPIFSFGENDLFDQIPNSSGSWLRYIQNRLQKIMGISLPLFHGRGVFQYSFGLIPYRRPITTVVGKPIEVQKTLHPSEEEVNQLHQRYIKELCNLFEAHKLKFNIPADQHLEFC

Structure (SMILES)	Remaining rate (%) [1]	IC50 (recombinant human MGAT2)	solubility at 16 h [2]
Cc1ccc(-n2nc3c(c2NC(=O)CS(C)(=N)=O)C(=O)N[C@@]2(CCc4cc(OCC(F)(F)F)ccc42)C3)nc1 (single isomer, unassigned) [II-276]	98.2%	2.2 nM	> 50 µM
CS(=O)(=O)CC(=O)Nc1c2c(nn1CCC1CC1)C[C@]1(CCc3cc(OCC(F)(F)F)ccc31)NC2=O [Compound I-8]	102%		> 50 µM
CS(=O)(=O)CC(=O)Nc1c2c(nn1-c1ccccn1)C[C@]1(CCc3cc(OCCCC(F)(F)F)ccc31)NC2=O [Compound I-23]	98.7%		48.2 µM (≈ 27.8 µg/mL)
CS(=O)(=O)CC(=O)Nc1c2c(nn1-c1ccc(C#N)cn1)C[C@]1(CCc3cc(OCC(F)(F)F)ccc31)NC2=O [Compound I-190]	96.6%		> 50 µM
CS(=O)(=O)CC(=O)Nc1c2c(nn1CCCC(F)(F)F)C[C@@]1(CCc3cc(OCC(F)(F)F)ccc31)NC2=O [Compound I-212]	62.6%		> 50 µM
Cc1ccc(-n2nc3c(c2NC(=O)CS(C)(=O)=O)C(=O)N[C@@]2(CCc4cc(OCC(F)(F)F)ccc42)C3)nc1 [Compound I-236]	87.6%		> 50 µM
Cc1ccc(-n2nc3c(c2NC(=O)CS(C)(=O)=O)C(=O)N[C@@]2(CCOc4cc(OCC(F)(F)F)ccc42)C3)nc1 [Compound I-275]	91.8%		> 50 µM
CS(=O)(=O)CC(=O)Nc1c2c(nn1CCCOC(F)(F)F)C[C@@]1(CCc3cc(OCC(F)(F)F)cc(F)c31)NC2=O [II-93]	103%		> 50 µM
Cc1ccc(-n2nc3c(c2NC(=O)CS(C)(=O)=O)C(=O)N[C@@]2(CCOc4cc(OCC(C)(F)F)ccc42)C3)nc1 [II-151]	82.6%		> 50 µM
CS(=O)(=O)CC(=O)Nc1c2c(nn1-c1ccc(C(F)F)cc1)C[C@]1(CCc3cc(OCC(F)(F)F)ccc31)NC2=O [II-174]	99.9%		32.4 µM (≈ 19.4 µg/mL)
CS(=O)(=O)CC(=O)Nc1c2c(nn1-c1ccc(F)c(F)c1)C[C@]1(CCOc3cc(CCC(F)(F)F)ccc31)NC2=O [II-225]	104%		45.1 µM (≈ 27 µg/mL)
Cc1ccc(-n2nc3c(c2NC(=O)CC(N)=O)C(=O)N[C@@]2(CCOc4cc(OCC(F)(F)F)ccc42)C3)nc1 [II-269]		11.7 nM	
CNS(=O)(=O)CC(=O)Nc1c2c(nn1-c1ccc(C)cn1)C[C@]1(CCOc3cc(OCC(F)(F)F)ccc31)NC2=O [II-271]		1.34 nM	
Cc1ccc(-n2nc3c(c2NC(=O)C2(S(C)(=O)=O)CC2)C(=O)N[C@@]2(CCOc4cc(OCC(F)(F)F)ccc42)C3)nc1 [II-272]		210 nM	
N#Cc1ccc(-n2nc3c(c2C(=O)NS(=O)(=O)C2CC2)C(=O)N[C@]2(CCc4cc(OCC(F)(F)F)ccc42)C3)nc1 [II-273]		14 nM	
Cc1ccc(-n2nc3c(c2C(=O)NS(=O)(=O)C2CC2)C(=O)N[C@@](c2ccc(OCC(F)(F)F)cc2F)(C(F)(F)F)C3)nc1 [II-274]		6.67 nM	
CS(=O)(=O)CC(=O)Nc1c2c(nn1CCCOC(F)(F)F)C[C@@]1(CCc3cc(OCCCC(F)(F)F)ccc31)NC2=O [II-277]		1 nM	
Cc1cc(-n2nc3c(c2NC(=O)CS(C)(=O)=O)C(=O)N[C@@]2(CCc4cc(C(F)(F)F)ccc42)C3)nn1C [II-278]		5.92 nM	
CS(=O)(=O)CC(=O)Nc1c2c(nn1CCCOC(F)(F)F)C[C@@]1(CCOc3cc(C4CC4)ccc31)NC2=O [II-279]		1.12 nM	
CS(=O)(=O)CC(=O)Nc1c2c(nn1CCCOC(F)(F)F)C[C@@]1(CCOc3cc(CCC(F)(F)F)ccc31)NC2=O [II-280]		< 1 nM	
Cc1cc(-n2nc3c(c2NC(=O)CS(C)(=O)=O)C(=O)N[C@@]2(CCc4cc(OCCCC(F)(F)F)ccc42)C3)no1 [II-282]		< 1 nM	
CS(=O)(=O)CC(=O)Nc1c2c(nn1CCCOC(F)(F)F)C[C@]1(CCc3cc(CCC(F)(F)F)ccc31)NC2=O [II-283]		< 1 nM	
CS(=O)(=O)CC(=O)Nc1c2c(nn1CCCOC(F)(F)F)C[C@@]1(CCc3cc(CCC(F)(F)F)ccc31)NC2=O [II-284]		< 1 nM	

Structure (SMILES)	Remaining rate (%) [1]	IC50 (recombinant human MGAT2)	solubility at 16 h [2]
CS(=O)(=O)CC(=O)Nc1c2c(nn1CCCOC(F)F)C[C@]1(CCc3cc(CCC(F)(F)F)ccc31)NC2=O [II-285]		1.04 nM	
CS(=O)(=O)CC(=O)Nc1c2c(nn1CCCOC(F)F)C[C@@]1(CCc3cc(CCC(F)(F)F)ccc31)NC2=O [II-286]		1.15 nM	
CS(=O)(=O)CC(=O)Nc1c2c(nn1-c1ccc(C(F)F)cc1)C[C@]1(CCc3cc(N4CC(F)(F)C4)ccc31)NC2=O [II-287]		5.26 nM	
CC(F)(F)COc1ccc2c(c1)CC[C@]21Cc2nn(-c3ccc(C(F)F)cc3)c(NC(=O)CS(C)(=O)=O)c2C(=O)N1 [II-288]		3.31 nM	
CCS(=O)(=O)CC(=O)Nc1c2c(nn1CCCOC(F)(F)F)C[C@@]1(CCOc3cc(OCC(F)(F)F)ccc31)NC2=O [II-289]		1.06 nM	
CS(=O)(=O)CC(=O)Nc1c2c(nn1CCCOC(F)F)C[C@]1(CCc3cc(OCC4CC(F)(F)C4)ccc31)NC2=O [II-290]		< 1 nM	
CS(=O)(=O)CC(=O)Nc1c2c(nn1CCCOC(F)F)C[C@@]1(CCc3cc(OCC4CC(F)(F)C4)ccc31)NC2=O [II-291]		< 1 nM	
O=C1N[C@]2(CCOc3cc(OCC(F)(F)F)ccc32)Cc2nn(CCCOC(F)(F)F)c(NC(=O)C3CS(=O)(=O)C3)c21 [II-293]		2.76 nM	
CS(=O)(=O)CC(=O)Nc1c2c(nn1-c1ccc(C(F)(F)F)cn1)C[C@]1(CCOc3cc(OCC(F)(F)F)ccc31)NC2=O [II-294]		< 1 nM	
CS(=O)(=O)CC(=O)Nc1c2c(nn1-c1ccc(C3CC3)cn1)C[C@]1(CCOc3cc(OCC(F)(F)F)ccc31)NC2=O [II-296]		< 1 nM	
CS(=O)(=O)CC(=O)Nc1c2c(nn1-c1ccc(C(F)F)cn1)C[C@]1(CCc3cc(OCC(F)(F)F)ccc31)NC2=O [II-297]		< 1 nM	
CS(=O)(=O)CC(=O)Nc1c2c(nn1-c1ccc(C(F)F)cc1)C[C@]1(CCOc3cc(OCC(F)(F)F)ccc31)NC2=O [II-298]		< 1 nM	
Cc1cc(-n2nc3c(c2NC(=O)CS(C)(=O)=O)C(=O)N[C@@]2(CCc4cc(CCC(F)(F)F)ccc42)C3)nn1C [II-299]		1.98 nM	
Cc1cc(-n2nc3c(c2NC(=O)CS(C)(=O)=O)C(=O)N[C@](C)(c2ccc(CCC(F)(F)F)cc2F)C3)no1 [II-300]		< 1 nM	
CS(=O)(=O)CC(=O)Nc1c2c(nn1-c1ccc(F)cc1)CC1(CN(c3ccc(C(F)(F)F)cc3)C1)NC2=O [II-301]		15.9 nM	
Cc1ccc(-n2nc3c(c2NC(=O)CS(C)(=O)=O)C(=O)N[C@@]2(CCc4cc(C5CC5)ccc42)C3)nn1 [II-302]		3.61 nM	
Cc1cc(-n2nc3c(c2NC(=O)CS(C)(=O)=O)C(=O)N[C@@]2(CCc4cc(C5CC5)ccc42)C3)nn1C [II-303]		4.42 nM	
Cc1ccc(-n2nc3c(c2NC(=O)CS(C)(=O)=O)C(=O)N[C@@]2(CCc4cc(CCC(F)(F)F)ccc42)C3)nn1 [II-304]		1.39 nM	
Cc1cc(-n2nc3c(c2NC(=O)CS(C)(=O)=O)C(=O)N[C@](C)(c2ccc(OCCCC(F)(F)F)cc2F)C3)no1 [II-305]		1 nM	
Cc1cc(-n2nc3c(c2NC(=O)CS(C)(=O)=O)C(=O)N[C@@]2(CCc4cc(Cl)ccc42)C3)nn1C [II-306]		11.3 nM	
Cc1ccc(-n2nc3c(c2NC(=O)CS(C)(=O)=O)C(=O)N[C@@]2(CCc4cc(Cl)ccc42)C3)nn1 [II-307]		6.19 nM	
Cc1ccc(-n2nc3c(c2NC(=O)CS(C)(=N)=O)C(=O)NC2(C3)CN(c3ccc(C(F)(F)F)cc3)C2)nc1 (stereo not drawn) [II-308]		6.58 nM	

From patent publication US11198695B2, “Fused ring derivative having MGAT-2 inhibitory activity” (Shionogi & Co., Ltd., priority 2017, dated 2021)
